Laboratory results: paper PMC4205912, “Sea foam as a source of fungal inoculum for the isolation of biologically active natural products” (Mycology, 2014)
≈ marks a conversion by molar mass, not a printed value. Read-outs that look alike come from different tables or passages of the source.

Key:
VRE EF379 = assay: microbroth antibiotic susceptibility testing, VRE; format: cell-based, vancomycin-resistant Enterococcus faecium; conditions: Enterococcus, VRE; for IC50: read-out: VRE IC50; for MIC: read-out: VRE MIC
Description: (§1) All microbroth antibiotic susceptibility testing was carried out in triplicate in 96-well plates in accordance with Clinical Laboratory Standards Institute testing standards (NCCLS, [2003]) using the following pathogens: MRSA ATCC 33591 (MRSA), S. warneri ATCC 17917, VRE EF379 (VRE), Pseudomonas aeruginosa ATCC 14210, Proteus vulgaris ATCC 12454, and Candida albicans ATCC 14035. Extract fractions were assayed at 250 µg/mL while pure compounds were serially diluted to generate a range of 12 concentrations (128–0.0625 µg/mL) in a final well volume concentration of 2% DMSO(aq). […] The optical density of the plate was recorded using a Thermo Scientific Varioskan Flash plate reader at 600 nm at time zero and then again after incubation of the plates for 22 h at 37°C. After subtracting the time zero OD600 from the final reading, the percentages of microorganism survival relative to vehicle control wells were calculated.

MRSA ATCC 33591 = assay: microbroth antibiotic susceptibility testing, MRSA; format: cell-based, methicillin-resistant Staphylococcus aureus; conditions: Staphylococcus aureus; for IC50: read-out: MRSA IC50; for MIC: read-out: MRSA MIC
Description: as §1

[1] = system: Proteus vulgaris ATCC 12454; assay: microbroth antibiotic susceptibility testing, P. vulgaris; format: cell-based; conditions: Proteus vulgaris, ATCC12454; triplicate, averaged; 22 h at 37°C
Description: as §1, with “14035.” for “14035. Extract fractions were assayed at 250 µg/mL while pure compounds were serially diluted to generate a range of 12 concentrations (128–0.0625 µg/mL) in a final well volume concentration of 2% DMSO(aq).”

[2] = system: Pseudomonas aeruginosa ATCC 14210; assay: microbroth antibiotic susceptibility testing, P. aeruginosa; format: cell-based; conditions: Pseudomonas aeruginosa, ATCC14210; triplicate, averaged; 22 h at 37°C
Description: as §1

[3] = system: Candida albicans ATCC 14035; assay: microbroth susceptibility testing, C. albicans; format: cell-based; conditions: for IC50 / MIC: Candida albicans, ATCC14035
Description: as §1

[4] = system: adult human epidermal keratinocytes (HEKa); assay: cytotoxicity assay (Alamar blue), keratinocytes; format: cell-based; conditions: Homo sapiens; HeKa cells, 24 h; read-out: Keratinocyte IC50
Description: (§2) Human foreskin BJ fibroblast cells (ATCC CRL-2522), adult human epidermal keratinocytes (HEKa), and human breast adenocarcinoma cells (ATCC HTB-26) were grown to 80% confluency (growth conditions are provided in Supplementary Materials and Methods), the cells were counted, diluted, and plated into treated 96-well cell culture plates. The BJ fibroblast and HEKa cells were plated at a cell density of 10,000 cells per well and the HTB-26 cells were plated at cell density of 5000 cells per well in 90 µL of respective growth medium (without the addition of antibiotics) and incubated for 24 h to allow cells to adhere to the plates before treatment. Pure compounds were tested in triplicate in serial dilutions of eight concentrations ranging from 128 µg/mL to 1 µg/mL per well (final well volume of 100 µL, 1% DMSO per well). Each of the cell lines were incubated at 37°C in a humidified atmosphere of 5% CO2; the BJ fibroblast and HEKa cells for 24 h and the HTB-26 cells for 72 h. Each plate contained four uninoculated positive controls, four untreated negative controls, and one column containing a concentration range of zinc pyrithione or doxorubicin. Alamar blue was added, 24 h after the treatment, and fluorescence was monitored using a Thermo Scientific Varioskan Flash plate reader at 560/12 excitation, 590 nm emission both at time zero and 4 h after Alamar blue addition. The inferred percentage of cell viability relative to vehicle control wells were calculated after subtracting the time zero emission 590 nm measurement from the final reading and the IC50 was determined.

[5] = system: Human foreskin BJ fibroblast cells (ATCC CRL-2522); assay: cytotoxicity assay (Alamar blue), fibroblasts; format: cell-based; conditions: for IC50: Homo sapiens, 24 h, read-out: Fibroblast IC50
Description: as §2

[6] = system: erythropoietin gene expression; parameters: method as in Cai et al. [1998]; conditions: at a concentration of 1–1.6 µM; ref Cai et al. [1998]; cited from earlier work
S. warneri ATCC 17917 = assay: microbroth antibiotic susceptibility testing, S. warneri; format: cell-based; conditions: Staphylococcus warneri; for IC50: read-out: S. warneri IC50; for MIC: read-out: S. warneri MIC
Description: as §1

[7] = system: human breast adenocarcinoma cells (ATCC HTB-26); assay: cytotoxicity assay (Alamar blue), HTB-26; format: cell-based; conditions: for IC50: Homo sapiens, HTB26, 72 h, read-out: HTB-26 IC50
Description: as §2

[8] = triplicate, averaged, 22 h at 37°C
[9] = ATCC17917, triplicate, averaged, 22 h at 37°C
[10] = at a concentration of 128 μg/mL
[11] = HTB-26 breast cancer cells, 72 h

IC50 (VRE EF379; [8])	MIC (VRE EF379; [8])	IC50 (MRSA ATCC 33591; [8])	MIC (MRSA ATCC 33591; [8])	IC50 [1]	MIC [1]	IC50 [2]	MIC [2]	IC50 [3, 8]	MIC [3, 8]	IC50 (S. warneri ATCC 17917; [9])	MIC (S. warneri ATCC 17917; [9])	SMILES	IC50 [4]	IC50 ([5]; BJ cells)	HTB-26 MIC [7, 11]	IC50 [7, 11]	further results
0.5 µg/mL (≈ 0.608 µM)	2 µg/mL (≈ 2.43 µM)	–	–	–	–	–	–	–	–	–	–	CO[C@H]1/C=C/O[C@@]2(C)Oc3c(C)c(O)c4c(O)c(c(/C=N/N5CCN(C)CC5)c(O)c4c3C2=O)NC(=O)/C(C)=C\C=C\[C@H](C)[C@H](O)[C@@H](C)[C@@H](O)[C@@H](C)[C@H](OC(C)=O)[C@@H]1C [Rifampicin, rifampicin, reference compound]	–	–	–	–	–
52 µg/mL (≈ 135 µM)	> 64 µg/mL	48 µg/mL (≈ 125 µM)	64 µg/mL (≈ 166 µM)	> 64 µg/mL	> 64 µg/mL	> 128 µg/mL	> 128 µg/mL	43 µg/mL (≈ 112 µM)	64 µg/mL (≈ 166 µM)	–	–	C/C1=C\C(C)(C)/C=C/C[C@@]2(C)Oc3cc(O)c(=O)cc(C)c3CC2C[C@@H](O)C1 (some centres unmarked) [Epolone B, epolone B]	50 µg/mL (≈ 130 µM)	> 128 µg/mL	–	–	effect against C. albicans [3]: inhibitory effect; induction of erythropoietin gene expression [6]: five-fold
> 128 µg/mL	> 128 µg/mL	> 128 µg/mL	> 128 µg/mL	> 128 µg/mL	> 128 µg/mL	> 128 µg/mL	> 128 µg/mL	> 128 µg/mL	> 128 µg/mL	> 128 µg/mL	> 128 µg/mL	Cc1cc(O)c2c(c1)C(=O)c1cccc(O)c1C2=O [Chrysophanol, chrysophanol]	> 64 µg/mL	> 64 µg/mL	>64 µg/mL	> 64 µg/mL	activity against fibroblast cell line [5, 10]: inactive; activity against HTB-26 cell line [7, 10]: inactive
100 µg/mL (≈ 284 µM)	> 128 µg/mL	14 µg/mL (≈ 39.7 µM)	64 µg/mL (≈ 181 µM)	> 128 µg/mL	> 128 µg/mL	> 128 µg/mL	> 128 µg/mL	> 128 µg/mL	> 128 µg/mL	23 µg/mL (≈ 65.2 µM)	64 µg/mL (≈ 181 µM)	COC1=C(Cl)C(C)(O)c2c(oc(=O)c3c(O)cc(OC)cc23)C1=O (centres unmarked) [TMC-264]	1 µg/mL (≈ 2.84 µM)	13 µg/mL (≈ 36.9 µM)	8 µg/mL	2.8 µg/mL (≈ 7.94 µM)	–
44 µg/mL (≈ 84.5 µM)	> 64 µg/mL	48 µg/mL (≈ 92.2 µM)	64 µg/mL (≈ 123 µM)	> 64 µg/mL	> 64 µg/mL	> 128 µg/mL	> 128 µg/mL	> 64 µg/mL	> 64 µg/mL	33 µg/mL (≈ 63.4 µM)	64 µg/mL (≈ 123 µM)	Cc1cc(=O)c(O)cc2c1C[C@H]1CC(C)(C)/C=C/C[C@@]3(C)Oc4cc(O)cc(C)c4C[C@@H]3C[C@H](O)[C@]1(C)O2 [Epolone A, epolone A]	13 µg/mL (≈ 25 µM)	14 µg/mL (≈ 26.9 µM)	–	–	induction of erythropoietin gene expression [6]: five-fold

The remaining lines, values behind:

SMILES	IC50 (VRE EF379; [8])	MIC (VRE EF379; [8])	IC50 (MRSA ATCC 33591; [8])	MIC (MRSA ATCC 33591; [8])	IC50 [1]	MIC [1]	IC50 [2]	MIC [2]	IC50 [3, 8]	MIC [3, 8]	IC50 (S. warneri ATCC 17917; [9])	MIC (S. warneri ATCC 17917; [9])	IC50 [4]	IC50 ([5]; BJ cells)	HTB-26 MIC [7, 11]	IC50 [7, 11]	further results
C[C@H]1CCC/C=C/[C@@H]2C[C@H](O)C[C@H]2[C@H](O)/C=C/C(=O)O1 [Brefeldin A, brefeldin A]	> 128 µg/mL	> 128 µg/mL	> 128 µg/mL	> 128 µg/mL	> 128 µg/mL	> 128 µg/mL	> 128 µg/mL	> 128 µg/mL	20 µg/mL (≈ 71.3 µM)	128 µg/mL (≈ 457 µM)	> 128 µg/mL	> 128 µg/mL	0.5 µg/mL (≈ 1.78 µM)	> 64 µg/mL	–	> 0.5 µg/mL	effect against C. albicans [3]: antifungal effect
Cc1cc(CO)c2c(=O)c3c(O)cccc3oc2c1 [1-hydroxy-6-methyl-8-hydroxymethylxanthone]	> 128 µg/mL	> 128 µg/mL	> 128 µg/mL	> 128 µg/mL	> 128 µg/mL	> 128 µg/mL	> 128 µg/mL	> 128 µg/mL	> 128 µg/mL	> 128 µg/mL	> 128 µg/mL	> 128 µg/mL	12 µg/mL (≈ 46.8 µM)	29 µg/mL (≈ 113 µM)	32 µg/mL	24 µg/mL (≈ 93.7 µM)	–
C[C@@H]1[C@H](O)[C@@H](C)/C=C/C=C/CC/C=C/C=C/C=C/C=C/C(O[C@H]2O[C@H](C)[C@@H](O)[C@H](N)[C@@H]2O)CC2O[C@](O)(CC(O)C(O)CCC(O)CC(O)CC(O)CC(=O)O[C@H]1C)CC(O)C2C(=O)O (some centres unmarked) [Nystatin, nystatin, reference compound]	–	–	–	–	–	–	–	–	–	–	–	–	–	–	–	–	C. albicans IC50 [3, 8]: 0.92 µg/mL; C. albicans MIC [3, 8]: 1.6 µg/mL
COc1cccc2c1C(=O)c1c(O)c3c(c(O)c1C2=O)C[C@@](O)(C(=O)CO)C[C@@H]3O[C@H]1C[C@H](N)[C@H](O)[C@H](C)O1 [Doxorubromycin, doxorubicin, reference compound]	–	–	–	–	–	–	–	–	–	–	–	–	–	–	>16 µg/mL	2.5 µg/mL (≈ 4.6 µM)	–
CC(C)C12SSSSC3(C(=O)N1C)C1OC45C(=O)N(C)C(CO)C(=O)N4C4Nc6ccccc6C4(C5O)C14c1ccccc1NC4N3C2=O (centres unmarked) [Leptosin J, leptosin J]	–	–	–	–	> 128 µg/mL	> 128 µg/mL	> 128 µg/mL	> 128 µg/mL	> 128 µg/mL	> 128 µg/mL	9 µg/mL (≈ 12.1 µM)	64 µg/mL (≈ 86.4 µM)	> 0.5 µg/mL	–	0.5 µg/mL	–	IC50 (MRSA ATCC 33591; 22 h): 0.7 µg/mL (≈ 0.945 µM); MIC (MRSA ATCC 33591; 22 h): 2 µg/mL (≈ 2.7 µM); IC50 (VRE EF379; 22 h): 128 µg/mL (≈ 173 µM); MIC (VRE EF379; 22 h): > 128 µg/mL; IC50 ([5]; BJ): 0.5 µg/mL (≈ 0.675 µM); IC50 [7]: > 0.5 µg/mL
Cc1cc(O)c2c(c1)C(C1c3cccc(O)c3C(=O)c3c(O)cc(C)cc31)c1cccc(O)c1C2=O (centres unmarked) [Chrysophanol bianthrone, chrysophanol bianthrone]	128 µg/mL (≈ 268 µM)	> 128 µg/mL	> 128 µg/mL	> 128 µg/mL	> 128 µg/mL	> 128 µg/mL	> 128 µg/mL	> 128 µg/mL	> 128 µg/mL	> 128 µg/mL	> 128 µg/mL	> 128 µg/mL	> 64 µg/mL	> 64 µg/mL	64 µg/mL	5 µg/mL (≈ 10.4 µM)	–
CN[C@H](CC(C)C)C(=O)N[C@H]1C(=O)N[C@@H](CC(N)=O)C(=O)N[C@H]2C(=O)N[C@H]3C(=O)N[C@H](C(=O)N[C@H](C(=O)O)c4cc(O)cc(O)c4-c4cc3ccc4O)[C@H](O)c3ccc(c(Cl)c3)Oc3cc2cc(c3O[C@@H]2O[C@H](CO)[C@@H](O)[C@H](O)[C@H]2O[C@H]2C[C@](C)(N)[C@H](O)[C@H](C)O2)Oc2ccc(cc2Cl)[C@H]1O [Vancomycin, vancomycin, reference compound]	–	–	–	–	–	–	–	–	–	–	–	–	–	–	–	–	IC50 (MRSA ATCC 33591; 22 h): 0.88 µg/mL (≈ 0.607 µM); MIC (MRSA ATCC 33591; 22 h): 1.6 µg/mL (≈ 1.1 µM); IC50 (S. warneri ATCC 17917; ATCC17917, 22 h): 0.75 µg/mL (≈ 0.518 µM); MIC (S. warneri ATCC 17917; ATCC17917, 22 h): 1 µg/mL (≈ 0.69 µM)
